Our source for the IC50 values is patent US20240116985A1, “STAPLED PEPTIDES AND METHODS THEREOF” (priority 2020, published 2024).

pIC50: −log10 of the molar value.

The assay deals with T1, full-length beta-Catenin (Uniprot ID P35222) (Homo sapiens, UniProt P35222).
T1 construct: 10 nM full-length beta-Catenin (Uniprot ID P35222)
T1 sequence (P35222 1-781): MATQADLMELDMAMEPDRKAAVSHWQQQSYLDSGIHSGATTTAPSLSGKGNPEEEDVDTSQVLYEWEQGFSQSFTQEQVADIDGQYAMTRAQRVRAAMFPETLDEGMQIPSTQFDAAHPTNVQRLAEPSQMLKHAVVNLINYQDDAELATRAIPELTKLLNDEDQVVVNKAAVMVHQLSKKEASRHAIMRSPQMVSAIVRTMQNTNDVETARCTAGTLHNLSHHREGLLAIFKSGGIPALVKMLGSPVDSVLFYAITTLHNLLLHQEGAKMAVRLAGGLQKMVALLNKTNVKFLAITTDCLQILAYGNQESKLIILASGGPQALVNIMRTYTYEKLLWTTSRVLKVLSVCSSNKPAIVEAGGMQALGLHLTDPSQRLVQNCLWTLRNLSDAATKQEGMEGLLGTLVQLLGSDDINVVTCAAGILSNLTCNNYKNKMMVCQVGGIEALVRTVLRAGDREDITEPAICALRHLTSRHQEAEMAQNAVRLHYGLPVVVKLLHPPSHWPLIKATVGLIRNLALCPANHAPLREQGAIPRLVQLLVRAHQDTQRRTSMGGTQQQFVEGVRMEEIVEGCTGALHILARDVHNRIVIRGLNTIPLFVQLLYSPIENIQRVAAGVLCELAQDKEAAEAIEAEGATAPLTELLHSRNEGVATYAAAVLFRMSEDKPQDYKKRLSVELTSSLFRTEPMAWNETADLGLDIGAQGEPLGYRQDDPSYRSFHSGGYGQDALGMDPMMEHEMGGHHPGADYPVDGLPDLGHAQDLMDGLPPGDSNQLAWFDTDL
Kind of assay: Fluorescence polarization IC50 (beta-catenin / 5FAM-TCF4 10-53 competition). To be noted: fluorescence polarization; read-out: beta-Catenin FP IC50. Format: binding.
Take `CC(=O)N1CCC[C@]12CCCCCCC[C@@](C)(C(=O)N[C@@H](CC(=O)O)C(=O)N[C@@H](CC(=O)O)C(=O)N[C@@H](C)C(=O)N[C@@H](C)C(=O)N[C@@H](Cc1ccccc1)C(=O)N[C@@H](CC(C)C)C(=O)NC(C)(C)C(=O)N[C@@H](Cc1ccsc1)C(=O)N[C@@H](Cc1csc3ccccc13)C(=O)N[C@@H](CCC(N)=O)C(N)=O)NC(=O)[C@H](CC(C)(C)C)NC(=O)[C@H](CC(=O)O)NC2=O` [I-1981, Ac-PL3-Asp-Npg-S6-Asp-Asp-Ala-Ala-Phe-Leu-Aib-3Thi-BztA-Gln-NH2]: the pIC50 is 6.25. Turning to `CC(=O)N1CCC[C@]12CCCCC[C@@](C)(C(=O)N[C@@H](CC(=O)O)C(=O)N[C@@H](CC(=O)O)C(=O)N[C@@H](C)C(=O)N[C@@H](C)C(=O)N[C@@H](Cc1ccccc1)C(=O)N[C@@H](CC(C)C)C(=O)NC(C)(C)C(=O)N[C@@H](Cc1ccsc1)C(=O)N[C@@H](Cc1csc3ccccc13)C(=O)N[C@@H](CCC(N)=O)C(N)=O)NC(=O)[C@H](CC(C)(C)C)NC(=O)[C@H](CC(=O)O)NC2=O` [I-1982, Ac-PL3-Asp-Npg-S4-Asp-Asp-Ala-Ala-Phe-Leu-Aib-3Thi-BztA-Gln-NH2], the negative-log IC50 (pIC50) was 5.01. Next, `CC(C)C[C@@H]1NC(=O)[C@H](Cc2ccccc2)NC(=O)[C@H](C)NC(=O)[C@H](C)NC(=O)[C@H](Cc2cccc(C(=O)O)c2)NC(=O)[C@H](CC(=O)O)NC(=O)C2(CCCC=CCCCOC(=O)N3CC[C@@](C(=O)N[C@@H](Cc4ccccc4Cl)C(=O)N[C@@H](Cc4csc5ccccc45)C(=O)N[C@@H](CCC(N)=O)C(N)=O)(C3)NC1=O)CCCC=CCCC(=O)N1CCCC1C(=O)N[C@@H](CC(=O)O)C(=O)N[C@@H](CC(C)(C)C)C(=O)N2` (stereo partly drawn) [I-1984, ProAm5-Asp-Npg-B5-Asp-3COOHF-Ala-Ala-Phe-Leu-PyrS2-2C1F-BztA-Gln-NH2]: 6.49; `CC(C)C[C@@H]1NC(=O)[C@H](Cc2ccccc2)NC(=O)[C@H](C)NC(=O)[C@H](C)NC(=O)[C@H](Cc2cccc(C(=O)O)c2)NC(=O)[C@H](CC(=O)O)NC(=O)C2(CCCC=CCCCOC(=O)N3CC[C@@](C(=O)N[C@@H](Cc4ccccc4Cl)C(=O)N[C@@H](Cc4csc5ccccc45)C(=O)N[C@@H](CCC(N)=O)C(N)=O)(C3)NC1=O)CCCC=CCCCC(=O)N1CCC[C@@H]1C(=O)N[C@@H](CC(=O)O)C(=O)N[C@@H](CC(C)(C)C)C(=O)N2` (stereo partly drawn) [I-1985, ProAm6-Asp-Npg-B5-Asp-3COOHF-Ala-Ala-Phe-Leu-PyrS2-2C1F-BztA-Gln-NH2]: 6.49; `CC(=O)N1CCC[C@]12CCCCCCC1(CCCCCCCCOC(=O)N3CC[C@@](C(=O)N[C@@H](Cc4ccsc4)C(=O)N[C@@H](Cc4csc5ccccc45)C(=O)N[C@@H](CCC(N)=O)C(N)=O)(C3)NC(=O)[C@H](CC(N)=O)NC(=O)[C@H](Cc3ccccc3)NC(=O)[C@H](C)NC(=O)[C@H](C)NC(=O)[C@H](CC(=O)O)NC(=O)[C@H](CC(=O)O)NC1=O)NC(=O)[C@H](CC(C)(C)C)NC(=O)[C@H](CC(=O)O)NC2=O` (stereo partly drawn) [I-1987, Ac-PL3-Asp-Npg-B5-Asp-Asp-Ala-Ala-Phe-Asn-PyrS2-3Thi-BztA-Gln-NH2]: 7.27. For the molecule `CC(=O)N1CCC[C@H]1C(=O)N[C@@H](CC(=O)O)C(=O)N[C@@H](CC(C)(C)C)C(=O)N[C@]1(C)CCCCC=CCCCOC(=O)N2CC[C@@](C(=O)N[C@@H](Cc3ccsc3)C(=O)N[C@@H](Cc3csc4ccccc34)C(=O)N[C@@H](CCC(N)=O)C(N)=O)(C2)NC(=O)[C@H](CC(C)C)NC(=O)[C@H](Cc2ccccc2)NC(=O)[C@H](C)NC(=O)[C@H](C)NC(=O)[C@H](CC(=O)O)NC(=O)[C@H](CC(=O)O)NC1=O` [I-1988, Ac-Pro-Asp-Npg-R6-Asp-Asp-Ala-Ala-Phe-Leu-PyrS2-3Thi-BztA-Gln-NH2], the pIC50 was 6.51.

For the molecule `CC(=O)N1CCC[C@H]1C(=O)N[C@@H](CC(=O)O)C(=O)N[C@@H](CC(C)(C)C)C(=O)N[C@]1(C)CCC=CCCCOC(=O)N2CC[C@@](C(=O)N[C@@H](Cc3ccsc3)C(=O)N[C@@H](Cc3csc4ccccc34)C(=O)N[C@@H](CCC(N)=O)C(N)=O)(C2)NC(=O)[C@H](CC(C)C)NC(=O)[C@H](Cc2ccccc2)NC(=O)[C@H](C)NC(=O)[C@H](C)NC(=O)[C@H](CC(=O)O)NC(=O)[C@H](CC(=O)O)NC1=O` [I-1989, Ac-Pro-Asp-Npg-R4-Asp-Asp-Ala-Ala-Phe-Leu-PyrS2-3Thi-BztA-Gln-NH2], the pIC50 is 6.73. On to `CC(=O)N1CCC[C@H]1C(=O)N[C@@H](CC(=O)O)C(=O)N[C@@H](CC(C)(C)C)C(=O)N[C@]1(C)CC=CCCCOC(=O)N2CC[C@@](C(=O)N[C@@H](Cc3ccsc3)C(=O)N[C@@H](Cc3csc4ccccc34)C(=O)N[C@@H](CCC(N)=O)C(N)=O)(C2)NC(=O)[C@H](CC(C)C)NC(=O)[C@H](Cc2ccccc2)NC(=O)[C@H](C)NC(=O)[C@H](C)NC(=O)[C@H](CC(=O)O)NC(=O)[C@H](CC(=O)O)NC1=O` [I-1990, Ac-Pro-Asp-Npg-R3-Asp-Asp-Ala-Ala-Phe-Leu-PyrS2-3Thi-BztA-Gln-NH2], for which the pIC50 was 6.23. For `CC(=O)N1CCC[C@H]1C(=O)N[C@@H](CC(=O)O)C(=O)N[C@@H](CC(C)(C)C)C(=O)N[C@]1(C)CCCCCCCCCOC(=O)N2CC[C@@](C(=O)N[C@@H](Cc3ccsc3)C(=O)N[C@@H](Cc3csc4ccccc34)C(=O)N[C@@H](CCC(N)=O)C(N)=O)(C2)NC(=O)[C@H](CC(C)C)NC(=O)[C@H](Cc2ccccc2)NC(=O)[C@H](C)NC(=O)[C@H](C)NC(=O)[C@H](CC(=O)O)NC(=O)[C@H](CC(=O)O)NC1=O` [I-1991, Ac-Pro-Asp-Npg-R6-Asp-Asp-Ala-Ala-Phe-Leu-PyrS2-3Thi-BztA-Gln-NH2] the value was 6.40. As to `CC(=O)N1CCC[C@H]1C(=O)N[C@@H](CC(=O)O)C(=O)N[C@@H](CC(C)(C)C)C(=O)N[C@]1(C)CCCCCCCOC(=O)N2CC[C@@](C(=O)N[C@@H](Cc3ccsc3)C(=O)N[C@@H](Cc3csc4ccccc34)C(=O)N[C@@H](CCC(N)=O)C(N)=O)(C2)NC(=O)[C@H](CC(C)C)NC(=O)[C@H](Cc2ccccc2)NC(=O)[C@H](C)NC(=O)[C@H](C)NC(=O)[C@H](CC(=O)O)NC(=O)[C@H](CC(=O)O)NC1=O` [I-1992, Ac-Pro-Asp-Npg-R4-Asp-Asp-Ala-Ala-Phe-Leu-PyrS2-3Thi-BztA-Gln-NH2], the pIC50 was 6.27. As to `CC(=O)N1CCC[C@H]1C(=O)N[C@@H](CC(=O)O)C(=O)N[C@@H](CC(C)(C)C)C(=O)N[C@]1(C)CCCCCCOC(=O)N2CC[C@@](C(=O)N[C@@H](Cc3ccsc3)C(=O)N[C@@H](Cc3csc4ccccc34)C(=O)N[C@@H](CCC(N)=O)C(N)=O)(C2)NC(=O)[C@H](CC(C)C)NC(=O)[C@H](Cc2ccccc2)NC(=O)[C@H](C)NC(=O)[C@H](C)NC(=O)[C@H](CC(=O)O)NC(=O)[C@H](CC(=O)O)NC1=O` [I-1993, Ac-Pro-Asp-Npg-R3-Asp-Asp-Ala-Ala-Phe-Leu-PyrS2-3Thi-BztA-Gln-NH2], the pIC50 was 6.14. Next, `CC(=O)N1CCC[C@]12CC=CCCCC1(CCCC=CCCCOC(=O)N3CC[C@@](C(=O)N[C@@H](Cc4cccc(C(F)(F)F)c4)C(=O)N[C@@H](Cc4csc5ccccc45)C(=O)N[C@@H](CCC(N)=O)C(N)=O)(C3)NC(=O)[C@H](CC(N)=O)NC(=O)[C@H](Cc3ccccc3)NC(=O)[C@H](C)NC(=O)[C@H](C)NC(=O)[C@H]([C@@H](C)O)NC(=O)[C@H](CC(N)=O)NC1=O)NC(=O)[C@H](CC(C)(C)C)NC(=O)[C@H](CC(=O)O)NC2=O` (stereo partly drawn) [I-1997, Ac-PL3-Asp-Npg-B5-Asn-Thr-Ala-Ala-Phe-Asn-PyrS2-3F3MeF-BztA-Gln-NH2]: 5.47.

In general, pIC50 refers to the IC50 on a negative log10 scale, so that one unit is a factor of ten.
